Several values for one entry are separate records, joined by “and”; a condition that tells them apart may be missing. Equal entries are not always repeated. Where two headings read alike, the source gives them in different places.
Key:
[1] = target: T1, human histamine H3 receptor (Homo sapiens, UniProt Q9Y5N1); conditions: cited from earlier work; for Ki: human H3R, [3H]Nα-methylhistamine, mean ± SEM; for Selectivity Ratio (H4/H3): ratio of Ki H4 / Ki H3, human receptors
T1 construct: purchased Euroscreen (Brussels, Belgium); host or cells: CHO cells (membrane preparations)
T1 sequence (Q9Y5N1 whole entry): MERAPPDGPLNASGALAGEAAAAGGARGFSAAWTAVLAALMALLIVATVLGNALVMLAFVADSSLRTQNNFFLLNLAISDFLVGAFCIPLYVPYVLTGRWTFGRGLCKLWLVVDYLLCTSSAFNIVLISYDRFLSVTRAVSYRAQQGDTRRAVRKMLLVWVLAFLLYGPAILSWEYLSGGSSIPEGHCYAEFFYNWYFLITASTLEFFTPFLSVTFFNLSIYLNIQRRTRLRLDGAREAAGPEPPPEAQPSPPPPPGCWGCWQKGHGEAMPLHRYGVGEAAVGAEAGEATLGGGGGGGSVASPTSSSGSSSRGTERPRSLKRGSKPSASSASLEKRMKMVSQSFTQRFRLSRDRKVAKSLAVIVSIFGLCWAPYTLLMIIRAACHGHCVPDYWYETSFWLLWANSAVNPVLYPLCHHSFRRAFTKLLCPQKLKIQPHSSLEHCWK

[2] = target: T2, human histamine H4 receptor (Homo sapiens, UniProt Q9H3N8); parameters: method as in PMID 16942032; conditions: human H4R, [3H]histamine; mean ± SEM; cited from earlier work
T2 construct: purchased Euroscreen (Brussels, Belgium); host or cells: CHO cells (membrane preparations)

[3] = target: T1, human histamine H3 receptor; test: Radioligand binding assay with [3H]Nα-methylhistamine on CHO cell membranes expressing recombinant human H3 receptor; conditions: for Ki: human H3R, CHO cell membranes, [3H]Nα-methylhistamine, mean ± SEM (n = 3–5); for Selectivity Ratio (H4/H3): ratio of Ki H4 / Ki H3, human receptors
Protocol: (§1) The binding affinities of 6, 7, ent-6, and ent-7 for the human H3R subtype with [^3H]N^α-methylhistamine and the human H4R subtype with [^3H]histamine were evaluated using cell membranes expressing human H3R or H4R according to the previously reported method, and the results are summarized in Table 1.
(§2) The protocol of the biological assay was according to the previous report. The membrane preparations of Chinese hamster ovary (CHO) cells, which expressed recombinant human histamine H3 or H4 receptors, were purchased from Euroscreen (Brussels, Belgium). The binding assay of the H3 and H4 receptors was performed using [^3H]N^α-methylhistamine (Perkin-Elmer, Boston, MA) and [^3H]histamine (Perkin-Elmer), respectively. Briefly, the membrane preparations (7.5–15 µg protein) were incubated with different concentrations of [^3H]N^α-methylhistamine (0.1–3 nM) and of [^3H]histamine(1–30 nM) for 30 min at 25 °C in 50 mM Tris/5 mM MgCl2 buffer (pH 7.4). The reaction was terminated by rapid filtration (Cell Harvester, Brandel Co., Gaithersburg, MD) through Whatman GF/B glass fiber filters presoaked for 2 h in 0.5% polyethyleneimine, and the filters were rinsed three times with an ice-cold buffer (2 mL). Membrane-bound radioactivity was extracted from filters overnight in scintillation fluid (toluene, 2 L; Triton X-100, 1 L; 2,5-diphenyloxazole, 15 g; 1,4-bis[2-(5-phenyloxazolyl)]benzene, 0.3 g) and determined in a liquid scintillation counter. […] The apparent dissociation constants (Kd) for each radioligand was determined by nonlinear regression analysis of the curve generated by plotting specific binding concentration versus concentration of the radioligand with GraphPad Prism (GraphPad Software, San Diego, CA) using a one-site binding curve equation. […] The inhibition constant, Ki, was calculated from the equation, Ki = IC50/(1 + L/Kd), where L equals the concentration of each radioligand. The data were presented as mean ± SE (n = 3–5).

[4] = target: T2, human histamine H4 receptor; test: Radioligand binding assay with [3H]histamine on CHO cell membranes expressing recombinant human H4 receptor; conditions: human H4R, mean ± SEM (n = 3–5)
Protocol: as §1, §2

SMILES | Ki [3] [nM] | Selectivity Ratio (H4/H3) [3] | Ki [4] [nM] | fold lower H3R binding affinity than that of 3 ([3]; H3R Ki of 5 compared with 3) | Ki [1] [nM] | Selectivity Ratio (H4/H3) [1] | Ki [2] [nM]
Clc1ccc(CNCC[C@@H]2C[C@@H]2c2cnc[nH]2)cc1 (single isomer, unassigned) [ent-3] | – | – | – | – | 8.4 ± 1.5 | 0.9 | 7.6 ± 0.4
Clc1ccc(CNC[C@H]2CC[C@@]3(c4c[nH]cn4)C[C@@H]23)cc1 (single isomer, unassigned) [ent-7] | 14.8 ± 3.8 | 4.7 | 69.2 ± 21 | – | – | – | –
Clc1ccc(CNCCC2CC2c2c[nH]cn2)cc1 (stereo not shown) [Compound 3] | – | – | – | – | 3.6 ± 0.4 | 10.3 and 10 | 37.2 ± 2.7
Clc1ccc(CNC[C@@H]2CC[C@]3(c4c[nH]cn4)C[C@H]23)cc1 [Compound 7] | 5.6 ± 1.6 | – | 602 ± 343 | – | – | – | –

Continued by falling Ki [4], values first:

Ki [3] [nM] | Selectivity Ratio (H4/H3) [3] | Ki [4] [nM] | fold lower H3R binding affinity than that of 3 ([3]; H3R Ki of 5 compared with 3) | SMILES | Ki [1] [nM] | Selectivity Ratio (H4/H3) [1] | Ki [2] [nM]
31.6 ± 8.2 | 16 | 501 ± 201 | – | Cl.Cl.Clc1ccc(CNC[C@H]2CC[C@]3(c4c[nH]cn4)C[C@H]23)cc1 [Compound 6, (1S,4S,5R)-4-[N-(4-Chlorobenzyl)aminomethyl]-1-(1H-imidazol-4-yl)bicyclo[3.1.0]hexane dihydrochloride] | – | – | –
21.9 ± 6 | 19 | 416 ± 155 | – | Clc1ccc(CNC[C@@H]2CC[C@@]3(c4c[nH]cn4)C[C@@H]23)cc1 (single isomer, unassigned) [ent-6] | – | – | –
– | 1.2 | 76.5 ± 14 | more than 15 fold | CC[C@H](CNCc1ccc(Cl)cc1)[C@H]1C[C@@H]1c1c[nH]cn1 [Compound 5] | – | – | –
– | 1.3 | 9 ± 1 | – | CC[C@@H](CNCc1ccc(Cl)cc1)[C@H]1C[C@@H]1c1c[nH]cn1 [Compound 4] | – | – | –
